Measured values taken from PMC2361651 (British Journal of Cancer, 2005).
Several values for one entry are separate records, joined by “and”; a condition that tells them apart may be missing. Identical values can stand only once. Like-named read-outs stand apart in the source and are kept apart here.

Legend:
[1] = Plasma pharmacokinetics of SU5416 and metabolites in Phase I patients (HPLC UV); assay type: in vivo, human; conditions: twice weekly i.v. infusion; for clearance: read-out: CL (observed) (converted); for half-life: read-out: T1/2λz (converted); for Vd: read-out: Vz (observed)
Experimental: Samples were taken prior to treatment infusion, 15 min into the infusion, at completion of the infusion and then at 5, 10, 20, 30, 45, 60, 120 and 240 min following the infusion. […] At the designated times, 4.0 ml of blood were collected into a lithium heparin tube, gently inverted and placed on ice to maintain the sample at 2–8°C. All samples were immediately centrifuged at 6000 r.p.m. at 4°C for 10 min, the supernatant divided between two 1.5 ml Nalgene cryovials and snap frozen in liquid nitrogen. Separated plasma samples were subsequently stored at −70°C until analysis.
Pharmacokinetic analysis was performed using a fully validated HPLC UV method ([Stopeck et al, 2002]). Plasma samples, standards (25–2000 ng ml^−1) and quality controls spiked with internal standards were extracted with acetonitrile. Following centrifugation, drying and reconstitution in 200 μl mobile phase, 20 μl were analysed by HPLC UV. Chromatography was carried out using a C18 analytical column, with a gradient mobile phase containing acetonitrile and 10 mM ammonium formate at pH 2.6. The flow rate was 0.8 ml min^−1 and the run-time 21 min. Detection was via UV absorption at a wavelength of 440 nm. The accuracy of the assay, reflected in relative error of measured concentration to theoretical (prepared) concentrations, was between 0.9 and 5.6% for all quality control samples.
Pharmacokinetic parameters were evaluated using WinNonLin Software®.

[2] = parameters: method as in Fong et al, 1999; conditions: preclinical models, intracellular; ref Fong et al, 1999; cited from earlier work
[3] = human, plasma, iv, 85 mg m^−2, individual patients, dose 85 mg m^−2, cycle 1inj8
[4] = human, plasma, iv, 85 mg m^−2, individual patients, dose 85 mg m^−2, cycle 2inj8
[5] = human, plasma, iv, 110 mg m^−2, individual patients, dose 110 mg m^−2, cycle 1inj2
[6] = human, plasma, iv, 110 mg m^−2, individual patients, dose 110 mg m^−2, cycle 1inj8
[7] = individual patients, dose 48 mg m^−2, cycle 1inj2
[8] = individual patients, dose 48 mg m^−2, cycle 1inj8
[9] = individual patients, dose 65 mg m^−2, cycle 1inj2
[10] = individual patients, dose 65 mg m^−2, cycle 1inj8
[11] = individual patients, dose 85 mg m^−2, cycle 1inj2
[12] = individual patients, dose 85 mg m^−2, cycle 1inj8
[13] = individual patients, dose 110 mg m^−2, cycle 1inj2
[14] = individual patients, dose 145 mg m^−2, cycle 1inj2
[15] = individual patients, dose 145 mg m^−2, cycle 1inj8
[16] = individual patients, dose 145 → 190 mg m^−2, cycle 1inj2
[17] = individual patients, dose 145 → 190 mg m^−2, cycle 1inj8

Q: With `Cc1cc(C)c(/C=C2\C(=O)Nc3ccccc32)[nH]1` [SU5416, Z-3-[(2,4-dimethylpyrrol-5-yl)methylidenyl]-2-indolinone] as the compound, how does the AUC(0-t) [1, 3] read?
A: 2380 ng·h/mL

Q: And the clearance [1, 3]?
A: 1000 mL/min

Q: And the AUC(0-t) [1, 4]?
A: 1620 ng·h/mL

Q: What about the clearance [1, 4] of the same compound?
A: 1470 mL/min

Q: And the Cmax ([1]; human, plasma, iv, 85 mg m^−2, individual patients, dose 85 mg m^−2, cycle 2inj8, read-out: Cmax)?
A: 2800 ng/mL

Q: And the half-life [1, 4]?
A: 44.4 min

Q: And the Vd [1, 4]?
A: 94 L

Q: What about the AUC(0-t) [1, 5] of the same compound?
A: 4020 ng·h/mL

Q: And the clearance [1, 5]?
A: 767 mL/min

Q: What about the Cmax ([1]; human, plasma, iv, 110 mg m^−2, individual patients, dose 110 mg m^−2, cycle 1inj2, read-out: Cmax) of the same compound?
A: 3510 ng/mL

Q: And the half-life [1, 5]?
A: 37.2 min

Q: And the Vd [1, 5]?
A: 41 L

Q: What about the AUC(0-t) [1, 6] of the same compound?
A: 3800 ng·h/mL

Q: And the clearance [1, 6]?
A: 1400 mL/min

Q: What about the Cmax ([1]; human, plasma, iv, 110 mg m^−2, individual patients, dose 110 mg m^−2, cycle 1inj8, read-out: Cmax) of the same compound?
A: 3580 ng/mL

Q: What about the half-life [1, 6] of the same compound?
A: 37.2 min

Q: What about the Vd [1, 6] of the same compound?
A: 75 L

Q: And the AUClast [1, 7]?
A: 463 ng·h/mL and 848 ng·h/mL and 1143 ng·h/mL

Q: What about the “CL (observed)” value [1, 7] of the same compound?
A: 181 L/h and 94 L/h and 83 L/h

Q: What about the Cmax [1, 7] of the same compound?
A: 2724 ng/mL and 2253 ng/mL

Q: And the T1/2λz [1, 7]?
A: 30.6 min and 36.6 min

Q: And the “Vz (observed)” value [1, 7]?
A: 72 L

Q: And the “CL (observed)” value [1, 8]?
A: 115 L/h

Q: What about the Cmax [1, 8] of the same compound?
A: 1289 ng/mL

Q: And the T1/2λz [1, 8]?
A: 25.2 min

Q: And the AUClast [1, 9]?
A: 2510 ng·h/mL

Q: What about the “CL (observed)” value [1, 9] of the same compound?
A: 74 L/h

Q: What about the Cmax [1, 9] of the same compound?
A: 2968 ng/mL

Q: What about the T1/2λz [1, 9] of the same compound?
A: 49.2 min

Q: What about the “Vz (observed)” value [1, 9] of the same compound?
A: 88 L

Q: And the AUClast [1, 10]?
A: 2068 ng·h/mL

Q: What about the “CL (observed)” value [1, 10] of the same compound?
A: 89 L/h

Q: And the Cmax [1, 10]?
A: 2914 ng/mL

Q: What about the T1/2λz [1, 10] of the same compound?
A: 39 min

Q: And the “Vz (observed)” value [1, 10]?
A: 84 L

Q: What about the AUClast [1, 11] of the same compound?
A: 1151 ng·h/mL and 2094 ng·h/mL

Q: And the “CL (observed)” value [1, 11]?
A: 133 L/h and 102 L/h

Q: What about the Cmax [1, 11] of the same compound?
A: 1624 ng/mL and 2057 ng/mL

Q: What about the T1/2λz [1, 11] of the same compound?
A: 42.6 min

Q: And the “Vz (observed)” value [1, 11]?
A: 45 L and 136 L and 104 L

Q: What about the AUClast [1, 12] of the same compound?
A: 1250 ng·h/mL

Q: What about the Cmax [1, 12] of the same compound?
A: 3672 ng/mL and 1354 ng/mL

Q: And the T1/2λz [1, 12]?
A: 36 min and 123 min

Q: What about the “Vz (observed)” value [1, 12] of the same compound?
A: 52 L and 447 L

Q: What about the AUClast [1, 13] of the same compound?
A: 2345 ng·h/mL and 3842 ng·h/mL

Q: What about the “CL (observed)” value [1, 13] of the same compound?
A: 70 L/h and 83 L/h

Q: What about the Cmax [1, 13] of the same compound?
A: 2750 ng/mL and 3237 ng/mL

Q: What about the T1/2λz [1, 13] of the same compound?
A: 41.4 min and 33 min

Q: And the “Vz (observed)” value [1, 13]?
A: 70 L and 66 L

Q: What about the AUClast [1, 14] of the same compound?
A: 4946 ng·h/mL and 3471 ng·h/mL and 2021 ng·h/mL

Q: What about the “CL (observed)” value [1, 14] of the same compound?
A: 55 L/h and 92 L/h and 150 L/h

Q: What about the Cmax [1, 14] of the same compound?
A: 4851 ng/mL and 2869 ng/mL and 1217 ng/mL

Q: And the T1/2λz [1, 14]?
A: 53.4 min and 42.6 min

Q: What about the “Vz (observed)” value [1, 14] of the same compound?
A: 119 L and 153 L

Q: And the AUClast [1, 15]?
A: 2349 ng·h/mL

Q: And the “CL (observed)” value [1, 15]?
A: 62 L/h and 169 L/h

Q: And the Cmax [1, 15]?
A: 2080 ng/mL

Q: And the T1/2λz [1, 15]?
A: 40.2 min

Q: And the “Vz (observed)” value [1, 15]?
A: 51 L and 164 L

Q: What about the AUClast [1, 16] of the same compound?
A: 3389 ng·h/mL and 1928 ng·h/mL and 3683 ng·h/mL and 3397 ng·h/mL and 2621 ng·h/mL and 2870 ng·h/mL and 2465 ng·h/mL and 1267 ng·h/mL and 4094 ng·h/mL and 1578 ng·h/mL

Q: What about the Cmax [1, 16] of the same compound?
A: 4159 ng/mL and 2474 ng/mL and 2961 ng/mL and 2774 ng/mL and 2894 ng/mL and 2795 ng/mL and 3202 ng/mL and 1177 ng/mL and 4508 ng/mL and 2625 ng/mL

Q: What about the T1/2λz [1, 16] of the same compound?
A: 40.8 min and 30 min and 47.4 min and 39.6 min and 81.6 min and 40.2 min and 69 min and 22.8 min and 29.4 min and 41.4 min

Q: What about the “Vz (observed)” value [1, 16] of the same compound?
A: 63 L and 70 L and 85 L and 196 L and 97 L and 119 L and 118 L and 39 L and 106 L

Q: And the Cmax [1, 17]?
A: 3370 ng/mL and 2274 ng/mL and 2066 ng/mL and 2161 ng/mL and 493 ng/mL and 4283 ng/mL

Q: What about the “Vz (observed)” value [1, 17] of the same compound?
A: 57 L and 74 L and 176 L and 488 L and 214 L and 46 L

Q: And the “time for which levels capable of target inhibition are maintained” value [2]?
A: > 48 h
